Legend:
Type in all cases: in vivo
Abuthilon theophrasti = assay: Post-emergence application in field trials, ABUTH; details: ABUTH growth stage 14-16, 18 g ai/ha
Method: (§1) In the examples below, using the method of S. R. Colby (1967) “Calculating synergistic and antagonistic responses of herbicide combinations”, Weeds 15, p. 22ff., the value E, which is expected if the activity of the individual active compounds is only additive, was calculated:
(§2) [formula] • where • X=percent activity using active herbicide A at an application rate a; • Y=percent activity using active herbicide B (i.e. isoxaflutole) at an application rate b; • E=expected activity (in %) by A+B at application rates a+b.
(§3) If the value found experimentally is higher than the value E calculated according to Colby, a synergistic effect is present.
(§4) On field test sites, natural weed infestation or seeded weeds were treated post-emergence of the weeds.
(§5) In the field trials, the weeds were treated as indicated below.
(§6) In the following experiments, the herbicidal activity for the individual herbicidal compositions (solo and mixture applications) was assessed at the indicated days after treatment (DAT). The assessments for the damage on undesired weeds caused by the composition was carried out using a scale from 0 to 100%, compared to the untreated control plants. Here, 0 means no damage and 100 means complete destruction of the plants.
(§7) Herbicide A-1 and isoxaflutole (240 g/l SC, Balance Flexx®) were, together with addition of 0.25 v/v % MSO (methylated sed oil) as adjuvant, formulated in water as distribution medium (water volume 200 l/ha) and sprayed with commercial flat fan nozzles.

Amaranthus hybridus = assay: Post-emergence application in field trials, AMACH; details: Table 1.1; AMACH growth stage 35; 21 DAT; 25 g ai/ha
Method: as §1, §2, §3, §4, §5
as §6, with “the plants. […]” for “the plants.”

Amaranthus retroflexus = assay: Post-emergence application in field trials, AMARE; details: Table 3.4; AMARE growth stage 31-49; 42 DAT; 18 g ai/ha
Method: as §1, §2, §3, §4, §5, §6, §7
(§8) Herbicide A-1, isoxaflutole (240 g/l SC), saflufenacil (342 g/l) and pyroxasulfone were, together with addition of 0.25 v/v % MSO (methylated sed oil) as adjuvant, formulated in water as distribution medium (water volume 200 l/ha) and sprayed with commercial flat fan nozzles.

Spermacoce latifolia = assay: Post-emergence application in field trials, BOILF; details: Table 1.1, BOILF growth stage 40, 21 DAT
Method: as §1, §2, §3, §4, §5, §6
Herbicide A-1 and isoxaflutole (75% WG) were, together with addition of 0.5 v/v % MSO (methylated sed oil) as adjuvant, formulated in water as distribution medium (water volume 200 l/ha) and sprayed with commercial flat fan nozzles.

Datura stramonium = assay: Post-emergence application in field trials, DATST
Method: as §1, §2, §3, §4, §5, §6
(§9) Herbicide A-1 and isoxaflutole (240 g/l SC) were, together with addition of 0.25 v/v % MSO (methylated sed oil) as adjuvant, formulated in water as distribution medium (water volume 200 l/ha) and sprayed with commercial flat fan nozzles.
(§10) Herbicide A-1, isoxaflutole (240 g/l SC) and saflufenacil (342 g/l) were, together with addition of 0.25 v/v % MSO (methylated sed oil) as adjuvant, formulated in water as distribution medium (water volume 200 l/ha) and sprayed with commercial flat fan nozzles.

Echinochloa crus-galli = assay: Post-emergence application in field trials, ECHCG
Method: as §1, §2, §3, §4, §5, §6, §9, §7, §10, §8

Euphorbia heterophylla = assay: Post-emergence application in field trials, EPHHL; details: Table 1.1; EPHHL growth stage 35; 21 DAT; 50 g ai/ha
Method: as §1, §2, §3, §4, §5
as §6, with “the plants. […]” for “the plants.”

Glycine max = assay: Post-emergence application in field trials, GLXMA; details: GLXMA growth stage 13
Method: as §1, §2, §3, §4, §5, §6, §9

Hordeum vulgare = assay: Post-emergence application in field trials, HORVX; details: HORVX growth stage 23-29
Method: as §1, §2, §3, §4, §5, §6, §7

Ipomoea triloba = assay: Post-emergence application in field trials, IPOTR; details: Table 1.1; IPOTR growth stage 35; 21 DAT; 25 g ai/ha
Method: as §1, §2, §3, §4, §5
as §6, with “the plants. […]” for “the plants.”

Setaria verticillata = assay: Post-emergence application in field trials, SETVE; details: SETVE growth stage 21-23, 12.5 g ai/ha
Method: as §1, §2, §3, §4, §5, §6, §9, §7

Zea mays = assay: Post-emergence application in field trials, ZEAMX
Method: as §1, §2, §3, §4, §5, §6, §9, §7, §10, §8

CCOC(=O)COc1ccccc1Oc1nc(-n2c(=O)cc(C(F)(F)F)n(C)c2=O)c(F)cc1Cl [A-1, ethyl 2-[2-[[3-chloro-5-fluoro-6-[3-methyl-2,6-dioxo-4-(trifluoromethyl)pyrimidin-1-yl]-2-pyridyl]oxy]phenoxy]acetate]
% herbicidal activity (Abuthilon theophrasti; Table 3.1, 7 DAT): 90% | % herbicidal activity (Abuthilon theophrasti; Table 3.2, 21 DAT): 92% | % herbicidal activity (Abuthilon theophrasti; Table 3.4, 42 DAT): 90% | % herbicidal activity (Amaranthus hybridus): 84% | % herbicidal activity (Amaranthus retroflexus): 70% | % herbicidal activity (Spermacoce latifolia; 25 g ai/ha): 81% | % herbicidal activity (Spermacoce latifolia; 50 g ai/ha): 95% | % herbicidal activity (Datura stramonium; Table 2.1, DATST growth stage 14-16, 7 DAT, 18 g ai/ha): 75% | % herbicidal activity (Datura stramonium; Table 2.3, DATST growth stage 14-16, 21 DAT, 18 g ai/ha): 70% | % herbicidal activity (Datura stramonium; Table 4.2, DATST growth stage 14-16, height 5-10 cm, 42 DAT, 12.5 g ai/ha): 55% | % herbicidal activity (Datura stramonium; Table 4.2, DATST growth stage 14-16, height 5-10 cm, 42 DAT, 18 g ai/ha): 70% | % herbicidal activity (Echinochloa crus-galli; Table 2.1, ECHCG growth stage 23-30, 7 DAT, 12.5 g ai/ha): 30% | % herbicidal activity (Echinochloa crus-galli; Table 2.1, ECHCG growth stage 23-30, 7 DAT, 18 g ai/ha): 30% | % herbicidal activity (Echinochloa crus-galli; Table 3.1, ECHCG growth stage 23-30, 7 DAT, 18 g ai/ha): 30% | % herbicidal activity (Echinochloa crus-galli; Table 3.2, ECHCG growth stage 23-30, 21 DAT, 12.5 g ai/ha): 20% | % herbicidal activity (Echinochloa crus-galli; Table 4.1, ECHCG growth stage 23-30, height 15-20 cm, 7 DAT, 12.5 g ai/ha): 30% | % herbicidal activity (Echinochloa crus-galli; Table 4.1, ECHCG growth stage 23-30, height 15-20 cm, 7 DAT, 18 g ai/ha): 30% | % herbicidal activity (Echinochloa crus-galli; Table 5.11, 7 DAT, height 15-20 cm, A-1 12.5 g ai/ha): 30% | % herbicidal activity (Echinochloa crus-galli; Table 5.11, 7 DAT, height 15-20 cm, A-1 18 g ai/ha): 30% | % herbicidal activity (Euphorbia heterophylla): 86% | % herbicidal activity (Glycine max; Table 2.1, 7 DAT, 18 g ai/ha): 80% | % herbicidal activity (Glycine max; Table 2.2, 21 DAT, 12.5 g ai/ha): 80% | % herbicidal activity (Glycine max; Table 2.2, 21 DAT, 18 g ai/ha): 80% | % herbicidal activity (Glycine max; Table 2.3, 21 DAT, 12.5 g ai/ha): 75% | % herbicidal activity (Hordeum vulgare; Table 3.1, 7 DAT, 12.5 g ai/ha): 70% | % herbicidal activity (Hordeum vulgare; Table 3.1, 7 DAT, 18 g ai/ha): 80% | % herbicidal activity (Hordeum vulgare; Table 3.2, 21 DAT, 12.5 g ai/ha): 90% | % herbicidal activity (Ipomoea triloba): 61% | % herbicidal activity (Setaria verticillata; Table 2.1, 7 DAT): 60% | % herbicidal activity (Setaria verticillata; Table 3.4, 42 DAT): 30% | % herbicidal activity (Zea mays; Table 2.1, ZEAMX growth stage 15-16, 7 DAT, 18 g ai/ha): 85% | % herbicidal activity (Zea mays; Table 3.2, ZEAMX growth stage 15-16, 21 DAT, 18 g ai/ha): 75% | % herbicidal activity (Zea mays; Table 3.3, ZEAMX growth stage 15-16, 28 DAT, 18 g ai/ha): 60% | % herbicidal activity (Zea mays; Table 4.1, ZEAMX growth stage 15-16, height 25-30 cm, 7 DAT, 12.5 g ai/ha): 40% | % herbicidal activity (Zea mays; Table 4.1, ZEAMX growth stage 15-16, height 25-30 cm, 7 DAT, 18 g ai/ha): 50% | % herbicidal activity (Zea mays; Table 5.10, 7 DAT, height 25-30 cm, A-1 12.5 g ai/ha): 85% | % herbicidal activity (Zea mays; Table 5.10, 7 DAT, height 25-30 cm, A-1 18 g ai/ha): 85% | % herbicidal activity (Zea mays; Table 5.11, 7 DAT, height 25-30 cm, A-1 12.5 g ai/ha): 85% | % herbicidal activity (Zea mays; Table 5.11, 7 DAT, height 25-30 cm, A-1 18 g ai/ha): 85% | % herbicidal activity (Zea mays; Table 5.12, 7 DAT, height 25-30 cm, A-1 12.5 g ai/ha): 85% | % herbicidal activity (Zea mays; Table 5.12, 7 DAT, height 25-30 cm, A-1 18 g ai/ha): 85%

Reference: patent US12616201B2, “Herbicidal compositions comprising isoxaflutole” (BASF SE, priority 2024, dated 2026)
